Publication PMC10707468, “Pharmacokinetics of Novel Dopamine Transporter Inhibitor CE-123 and Modafinil with a Focus on Central Nervous System Distribution” (International Journal of Molecular Sciences, 2023)

Tests used:
[1] = In vitro metabolic stability in human liver microsomes; type: in vitro ADME; settings: R-modafinil 1, 5, 10, 50 µM
Protocol: An in vitro metabolism assay to study the phase I metabolism in the HLMs was in-house-developed. Optimization of the protocol included the test compound concentration (1, 5, 10 m and 50 µM) and extraction solvents (ACN and MeOH). […] The metabolic assay was initiated by the addition of 10 mM NADPH to the reaction solution and terminated after 0, 2.5, 5, 15, 30, 45, and 60 min via the addition of 200 µL of ice-cold MeOH containing the IS solution. The samples were than vortexed and spun for 15 min (14,000× g, 4 °C). The supernatant was collected, evaporated to dryness using the Concentrator plus (Eppendorf), and reconstituted with 100 µL of ACN/0.1% FA in water 10:90 (v:v). To ensure that the assay was performing adequately, the incubation of 1 µM diazepam at the same assay conditions as described was conducted, and the formation of its metabolites temazepam and nordazepam was monitored. A negative control included the absence of NADPH, the test compound, or HLMs during assay. […] The metabolic stability curves of the tested compounds were established by plotting the incubation time against the natural logarithm of the % parent drug remaining. The slope (k) of the linear part was utilized for the in vitro half-life (t1/2, min) as ln2/k. The V (µL/mg) was calculated as the volume of the reaction solution (100 µL) divided by the protein amount in the incubation (0.5 mg). The protein amount was predetermined by the supplier and the content was checked by using a Pierce™ BCA Protein Assay Kit (Thermo Fisher Scientific, Vienna, Austria) for each freshly opened tube. The intrinsic clearance (CLint, µL/min/mg) was calculated according to the following equation:(7) CLint=0.693/t1/2·V […]

[2] = In vitro plasma stability assay; type: in vitro ADME; settings: rat plasma, 37 °C
Protocol: In vitro plasma stability assay was used in the scope of the validation studies. Briefly, 40 μL of blank rat plasma or blank rat plasma containing 10% DMF as an inhibitor was first pre-warmed for 5 min at 37 °C using a Thermomixer® comfort (Eppendorf, Hamburg, Germany). […] The reaction was terminated after 0, 1, 2, and 4 h, via the addition of 50 μL of ice-cold ACN containing the IS solution. The samples were centrifuged for 10 min at 3000× g at 4 °C. The supernatant of all samples was diluted with 0.1% FA in water, 1:2 (v:v), and 10 µL of the sample was injected onto the LC–HRMS system.

[3] = In vivo rat tissue biodistribution / neuroPK study, 4 h intravenous constant infusion; design: species or system Sprague-Dawley rats; settings: for metabolite detection in rat samples: after 4 h iv infusion 20 mg/kg of parent
Protocol: The results are summarized in Figure 4 and Table S2 within Supplementary Materials.
In order to minimize the usage of animals and gain high confidence in the tissue distribution, a 4 h constant intravenous infusion study was designed based on the systemic pharmacokinetic parameters determined elsewhere. The catheters were surgically implanted a day before the PK experiment. The rats (n = 3 per compound) were then individually placed into a CMA 120 system (CMA, Solna, Sweden). […] A dose of 20 mg/kg was administered as a combination of an initial short 10 min infusion as a loading dose followed by a constant infusion up to 4 h, targeting a steady-state total plasma concentration of around 1000 ng/mL for each compound (based on the pilot study results). Blood was collected into heparinized Eppendorf tubes via a femoral artery catheter at 0 (before infusion starts) 1, 2, 3, and 4 h after the infusion started and immediately centrifuged at 10,000 rpm for 5 min at +4 °C. Plasma was then collected and kept at −20 °C. At 4 h, the rats were anesthetized via inhalation of 2.5% isoflurane (Abbot Scandinavia, Solna, Sweden), balanced with 1.5 L/min oxygen, after which the terminal blood and tissue samples were collected. […] The tissue samples (brain, spinal cord, liver, and kidney) were rapidly removed, pre-weighed into a 2 mL hard tissue homogenizing tube with mini-beads, and subsequently homogenized in 2 volumes of MQ water using a 4-Place Bead Mill Homogenizer (VWR, Stockholm, Sweden) at the maximal speed for 2 min and thereafter kept at +4 °C. The plasma and tissue homogenate samples were stored at −20 °C until LC–MS analysis.
For all the rat plasma and CSF samples, an aliquot of 50 µL was spiked with 50 µL of 4% PA in water containing the IS solution to disrupt the drug–protein binding. For all rat tissue samples (brain, spinal cord, liver, and kidney), an aliquot of 50 µL was spiked with 50 µL ice-cold ACN containing the IS solution for protein precipitation. The samples were vortexed and spun down for 10 min (3000× g, 4 °C) and 25 µL of clear supernatant was diluted with 225 µL 0.1% FA in water to achieve 10% of ACN in the solution. SPE clean-up was performed using an Oasis PRiME HLB µElution 96-well plate, 3 mg (Waters Corporation, Vienna, Austria). The SPE cartridges were preconditioned and equilibrated with 1 × 200 µL ACN and 0.1% FA in water each. The samples were loaded onto the cartridges and washed with 2 × 200 µL 0.1% FA in water and 1 × 200 µL ACN/0.1% FA in water 10:90 (v:v). The analytes were eluted from the SPE cartridge into a collection plate with 2 × 25 µL ACN/0.1% FA in water 70:30 (v:v). All the samples were diluted with 50 µL of 0.1% FA in water and 10 µL of sample was injected onto the LC–HRMS system.
All samples, blanks, standards, and quality control samples in the respective matrices were analyzed on a UHPLC system (Dionex UltiMate 3000 RSLC series system, Thermo Fisher Scientific, Inc., Dreieich, Germany) coupled with a high-resolution mass spectrometer (maXis HD Q-TOF, Bruker Daltonics, Bremen, Germany) equipped with a heated electrospray ionization (ESI) source. Reversed-phase chromatographic separation was performed on a Kinetex Phenyl-Hexyl column (2.6 µm, 2.1 × 50 mm, Phenomenex, Torrance, CA, USA), equipped with a precolumn (2.6 µm, Phenomenex, Torrance, CA, USA), at a flow rate of 0.4 mL/min. Eluent A was water containing 0.1% FA and eluent B ACN. A multi-step gradient was optimized as follows: the initial mobile phase composition (5% eluent B) was held constant for 1 min, followed by a linear increase to 30% eluent B until minute 1.5, to 40% eluent B until minute 5.5, and to 95% eluent B until minute 6. After a hold time of 2 min, the column was re-equilibrated for 2.5 min at the initial conditions (5% eluent B). The column compartment and the autosampler were maintained at 40 °C and at 8 °C, respectively. […]

CYP1A2 = settings: ref Robertson et al. (2000) [72]; cited from earlier work
CYP2B6 = settings: ref Robertson et al. (2000) [72]; cited from earlier work
CYP2C19 = CYP2C19 (Homo sapiens, UniProt P33261); settings: in HLMs; ref Robertson et al. (2000) [72]; cited from earlier work
Sequence of CYP2C19 (P33261 whole entry): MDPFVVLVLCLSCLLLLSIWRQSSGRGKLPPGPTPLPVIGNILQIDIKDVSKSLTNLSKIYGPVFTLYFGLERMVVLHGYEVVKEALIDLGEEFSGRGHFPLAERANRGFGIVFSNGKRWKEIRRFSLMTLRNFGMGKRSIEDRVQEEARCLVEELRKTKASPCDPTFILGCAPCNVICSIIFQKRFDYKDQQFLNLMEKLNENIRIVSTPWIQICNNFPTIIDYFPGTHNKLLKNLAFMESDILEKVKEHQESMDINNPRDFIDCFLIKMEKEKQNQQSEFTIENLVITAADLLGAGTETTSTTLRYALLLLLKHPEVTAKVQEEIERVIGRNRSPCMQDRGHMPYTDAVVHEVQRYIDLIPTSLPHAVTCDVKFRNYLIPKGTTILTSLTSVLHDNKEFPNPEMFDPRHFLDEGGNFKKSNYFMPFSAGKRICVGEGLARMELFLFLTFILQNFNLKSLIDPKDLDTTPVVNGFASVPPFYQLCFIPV

CYP2C9 = CYP2C9 (Homo sapiens, UniProt P11712); settings: primary cell cultures of human hepatocytes; ref Robertson et al. (2000) [72]; cited from earlier work
Sequence of CYP2C9 (P11712 whole entry): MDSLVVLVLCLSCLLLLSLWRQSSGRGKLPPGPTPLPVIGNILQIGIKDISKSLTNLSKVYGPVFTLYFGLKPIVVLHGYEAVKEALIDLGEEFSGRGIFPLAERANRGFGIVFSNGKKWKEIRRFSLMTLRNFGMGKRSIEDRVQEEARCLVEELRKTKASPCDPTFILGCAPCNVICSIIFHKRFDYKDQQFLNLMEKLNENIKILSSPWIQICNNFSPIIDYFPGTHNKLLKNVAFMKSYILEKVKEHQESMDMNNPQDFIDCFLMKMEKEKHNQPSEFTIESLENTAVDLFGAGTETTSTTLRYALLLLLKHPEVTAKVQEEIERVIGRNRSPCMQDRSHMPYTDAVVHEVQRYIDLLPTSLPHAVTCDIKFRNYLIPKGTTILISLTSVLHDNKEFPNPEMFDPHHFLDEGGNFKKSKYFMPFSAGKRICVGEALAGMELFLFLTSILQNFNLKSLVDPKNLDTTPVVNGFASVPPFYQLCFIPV

[4] = test system: cerebEND in vitro model of the blood–brain barrier; settings: cerebEND; cited from earlier work
male Sprague-Dawley rats = test system: male Sprague-Dawley rats; design: method as in PMID 29230168, PMID 29410048, PMID 33940050; settings: cited from earlier work

Compound: O=C(O)C[S+]([O-])C(c1ccccc1)c1ccccc1 (stereo not shown) [modafinic acid]
- metabolite formation during HLM incubation of R-modafinil [1]: not detected
- metabolite detection during plasma incubation of R-modafinil [2]: detected at the 2 and 4 h time points
- metabolite detection in rat samples [3]: detected together in the plasma, CSF, liver, and kidneys

Compound: NC(=O)CS(=O)(=O)C(c1ccccc1)c1ccccc1 [modafinil sulfone]
- metabolite formation during HLM incubation of R-modafinil [1]: observed at all concentrations
- metabolite detection in rat samples [3]: detected together in the plasma, CSF, liver, and kidneys
- detection in rat brain and spinal cord tissue ([3]; after 4 h iv infusion of R-modafinil 20 mg/kg, S/N below LOQ): detected

Compound: NC(=O)C[S+]([O-])C(c1ccccc1)c1ccccc1 (stereo not shown) [modafinil, 2-[(Diphenylmethyl)sulfinyl]acetamide]
- CYP1A2 induction (CYP1A2): modestly induces
- CYP2B6 induction (CYP2B6): modestly induces
- CYP2C19 inhibition (CYP2C19): reversible inhibition
- CYP2C9 activity (CYP2C9): apparent suppression

Compound: [O-][S+](c1cncs1)C(c1ccccc1)c1ccccc1 (stereo not shown) [CE-123, 5-[(Diphenylmethyl)sulfinyl]thiazole]
- ability to cross in vitro model of the BBB [4]: could penetrate the BBB in a similar manner to diazepam
- cognitive flexibility (male Sprague-Dawley rats; male Sprague-Dawley rats, without impulsive responding, compared to R-modafinil): enhance the cognitive flexibility
- memory acquisition and memory retrieval (male Sprague-Dawley rats; rats, doses that did not change locomotor activity): enhance memory acquisition and memory retrieval
